Assay results as given in article PMC9926234, “Iterative computational design and crystallographic screening identifies potent inhibitors targeting the Nsp3 macrodomain of SARS-CoV-2” (Proceedings of the National Academy of Sciences of the …, 2023).
Where “and” joins values, the source holds several entries; their conditions need not be identical. Equal values may be shown once. Read-outs that look alike come from different tables or passages of the source.

How the values were obtained:
Type in all cases: binding
SARS-CoV-2 NSP3 Mac1 [1] = biological target: T1, SARS-CoV-2 NSP3 Mac1 (Severe acute respiratory syndrome coronavirus 2, UniProt P0DTD1); assay: biochemical; conditions: for Ki: Ki estimation from HTRF-derived IC50, Cheng-Prusoff, peptide 400nM, Kd 2.68µM, read-out: Ki***; for IC50: read-out: IC50
SARS-CoV-2 NSP3 Mac1 [2] = biological target: T1, SARS-CoV-2 NSP3 Mac1; conditions: for Refined occupancy: ligand occupancy after refinement (phenix.refine); for binding to Mac1 in crystal soaking, result in words: soaks at 10 to 20 mM
SARS-CoV-2 NSP3 Mac1 [3] = biological target: T1, SARS-CoV-2 NSP3 Mac1; parameters: contains a conserved macrodomain enzyme (Mac1); conditions: for Spearman est (compound concentration vs apparent Tm): DSF dose responsiveness, 1 µM nsp3 mac1, adj p given
Outline: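 Differential scanning fluorimetry using 5 µM Fluorescent Yellow dye in place of SYPRO Orange. Compounds run in triplicate at seven two-fold dilutions from 1,000 or 100 μM, with ΔTma taken against a DMSO control in the same plate region. Dose-response significance assessed by Spearman's coefficient between concentration and ΔTma.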

[4] = PanDDA 1-BDC value of the event, crystal soak, compound concentration 100 mM, per dataset
[5] = PanDDA event map, 1 minus background density correction, crystal soaking of Mac1
[6] = crystal soak, compound concentration 100 mM, per dataset
[7] = ligand modeled in the crystal structure, crystal soak, compound concentration 100 mM, per dataset
[8] = true hit = binding in crystallographic soaking or the HTRF-based binding assay
[9] = ligand modeled from this dataset, compound concentration 100 mM, Echo dispense volume 40 or 80 nl
[10] = PanDDA event map, 1-BDC of the hit dataset, crystal soak, compound concentration 100 mM
[11] = ligand modeled from this dataset, compound concentration 100 mM
[12] = HTRF ADPr-peptide displacement from SARS-CoV-2 Mac1
[13] = HTRF, several values in a cell are separate determinations
[14] = PanDDA 1-BDC (background density correction) of the event, crystal soak 100 mM, PanDDA run dmso_34
[15] = crystal soak, compound concentration 100 mM, PanDDA run dmso_34, series docking_lead-like_1
[16] = ligand modeled in the crystal structure, crystal soak 100 mM, PanDDA run dmso_34
[17] = overall hit flag: binding in crystallographic soaking or the HTRF-based binding assay
[18] = maximal thermal upshift vs DMSO control
[19] = PanDDA event map background density correction, crystal soak, Compound_concentration 100 mM, PanDDA run dmso_34
[20] = crystal soak, Compound_concentration 100 mM, Echo dispense 40 nl, PanDDA run dmso_34
[21] = ligand modeled in crystal structure, crystal soak, Compound_concentration 100 mM, PanDDA run dmso_34
[22] = PanDDA event map 1-BDC, crystal soak, Compound_concentration 100 mM, PanDDA run dmso_34 or nohits_35 per dataset
[23] = crystal soak, Compound_concentration 100 mM, Echo dispense 40 nl, PanDDA run dmso_34 or nohits_35 per dataset

Row | Compound | Ki (SARS-CoV-2 NSP3 Mac1 [1]) [µM] | 1-BDC (SARS-CoV-2 NSP3 Mac1 [2]; [4]) | 1-BDC (SARS-CoV-2 NSP3 Mac1 [2]; [5]) | PanDDA hit? (SARS-CoV-2 NSP3 Mac1 [2]; [6]) | Refined occupancy (SARS-CoV-2 NSP3 Mac1 [2]; crystal soaking of Mac1) | HIT* (SARS-CoV-2 NSP3 Mac1 [2]; [8]) | Spearman est (compound concentration vs apparent Tm) (SARS-CoV-2 NSP3 Mac1 [3]) | DSF max dTma (SARS-CoV-2 NSP3 Mac1 [3]; maximal thermal upshift) | IC50 (SARS-CoV-2 NSP3 Mac1 [1]; HTRF) [µM] | IC50 (SARS-CoV-2 NSP3 Mac1 [1]; [12]) | IC50 (SARS-CoV-2 NSP3 Mac1 [1]; [13]) [µM] | HIT* (SARS-CoV-2 NSP3 Mac1 [2]; [17]) | DSF max dTma (SARS-CoV-2 NSP3 Mac1 [3]; [18]) [°C] | also measured
1 | O=C(NC1c2cccc(O)c2CC1C(=O)O)c1cnc2c(c1)CCCN2 (stereo not shown) [8539_0006] | 146 | 0.1 | 0.1 | TRUE | 20 | Y | −0.43 | 0 ˚C |  |  |  |  |  | Modeled? (SARS-CoV-2 NSP3 Mac1 [2]; [7]): TRUE
2 | O=C(NC1c2cccc(O)c2CC1C(=O)O)c1cnc(NC2CCOCC2)cn1 (stereo not shown) [8539_0007] | 5.6 | 0.2 | 0.19 | TRUE | 60 | Y | 0.24 | 3.42 ˚C |  |  |  |  |  | Modeled? (SARS-CoV-2 NSP3 Mac1 [2]; [9]): TRUE
3 | O=C(NC1c2cccc(O)c2CC1C(=O)O)c1ccc(NCC2CC2)nc1 (stereo not shown) [8539_0009] | 14.9 | 0.18 | 0.24 | TRUE | 70 | Y | 0.34 | 2.03 ˚C |  |  |  |  |  | Modeled? (SARS-CoV-2 NSP3 Mac1 [2]; [9]): TRUE
4 | O=C1COc2cc(C(=O)NC3c4cccc(O)c4CC3C(=O)O)ccc2N1 (stereo not shown) [8539_0014] | 24.3 | 0.29 | 0.29 | TRUE | 58 | Y | 0.59 | 1.83 ˚C |  |  |  |  |  | Modeled? (SARS-CoV-2 NSP3 Mac1 [2]; [9]): TRUE
5 | O=C(Nc1ccc(C(=O)NC2c3ccccc3CC2C(=O)O)cc1)NC1CC1 (stereo not shown) [8539_0029] | 4.2 | 0.13 | 0.11 | TRUE | 22 | Y | 0.73 | 3.66 ˚C |  |  |  |  |  | Modeled? (SARS-CoV-2 NSP3 Mac1 [2]; [9]): TRUE
6 | O=C(Nc1ccc(C(=O)N[C@H]2c3ccccc3CC[C@H]2C(=O)O)cc1)NC1CC1 [8539_0030] | 5.1 | 0.32 | 0.32 | TRUE | 64 | Y | 0.86 | 4.92 ˚C |  |  |  |  |  | Modeled? (SARS-CoV-2 NSP3 Mac1 [2]; [7]): TRUE
7 | O=C(O)CC1CN(c2ncnc3[nH]ccc23)CC2(CCC2)O1 (stereo not shown) [F6831] | 38.5 |  |  |  |  | Y | 0.94 | 2.21 ˚C | 44.2 |  |  |  |  | binding to Mac1 in crystal soaking, result in words (SARS-CoV-2 NSP3 Mac1 [2]): not confirmed by X-ray crystallography
8 | O=C(CSc1nnn[nH]1)c1c[nH]c2ncc(Br)cc12 [R1104] | 48.1 |  | 0.27 |  | 54 | Y | 0.54 | 1.16 ˚C | 55.3 |  |  |  |  | 1-BDC (SARS-CoV-2 NSP3 Mac1 [2]; [10]): 0.3
9 | Cc1c[nH]c2ncc(C(=O)N(C)c3nnn[nH]3)cc12 [R7335] | 36.7 |  |  |  | 40 | Y | 0.73 | 1.16 ˚C | 42.2 |  |  |  |  | 1-BDC (SARS-CoV-2 NSP3 Mac1 [2]; [10]): 0.26; 1-BDC (PanDDA) (SARS-CoV-2 NSP3 Mac1 [2]; [5]): 0.2; Modeled? (SARS-CoV-2 NSP3 Mac1 [2]; [11]): TRUE
10 | CCc1c[nH]c2ncnc(N3CCCC(S(C)(=O)=O)C3)c12 (stereo not shown) [Z1027] | 110 |  | 0.17 |  | 34 |  | 0.96 |  |  | 126 µM | 126 | Y | 1.03 | 1-BDC (SARS-CoV-2 NSP3 Mac1 [2]; [14]): 0.17; PanDDA hit? (SARS-CoV-2 NSP3 Mac1 [2]; [15]): TRUE; Modeled? (SARS-CoV-2 NSP3 Mac1 [2]; [16]): TRUE
11 | Cc1[nH]c2ncnc(N3CCOC(CC(F)(F)F)C3)c2c1C (stereo not shown) [Z2051] | 119 |  |  |  |  |  | 0.51 |  |  | 137 µM | 137 | Y | 0.51 | binding to Mac1 in crystal soaking, result in words (SARS-CoV-2 NSP3 Mac1 [2]): not confirmed by X-ray crystallography
12 | CCc1c[nH]c2ncnc(N3CCC[C@H](C(N)=O)C3)c12 [Z3271] | 177 |  |  |  |  |  | 0.97 |  |  | 204 µM | 204 | Y | 1.77 | binding to Mac1 in crystal soaking, result in words (SARS-CoV-2 NSP3 Mac1 [2]): not confirmed by X-ray crystallography
13 | O=S1(=O)CCC2(CCCN(c3ncnc4[nH]ccc34)C2)C1 (stereo not shown) [Z4305] | 148 |  | 0.38 |  | 76 |  | 0.77 |  |  | 170 µM | 170 | Y | 1.26 | 1-BDC (SARS-CoV-2 NSP3 Mac1 [2]; [14]): 0.38; PanDDA hit? (SARS-CoV-2 NSP3 Mac1 [2]; [15]): TRUE; Modeled? (SARS-CoV-2 NSP3 Mac1 [2]; [16]): TRUE
14 | CCc1c[nH]c2ncnc(N3CCCC(Cc4nc(C)no4)C3)c12 (stereo not shown) [Z5531] | 129 |  | 0.2 |  | 40 |  | 0.68 |  |  | 148 µM | 148 | Y | 0.6 | 1-BDC (SARS-CoV-2 NSP3 Mac1 [2]; [14]): 0.2; PanDDA hit? (SARS-CoV-2 NSP3 Mac1 [2]; [15]): TRUE; Modeled? (SARS-CoV-2 NSP3 Mac1 [2]; [16]): TRUE
15 | CC(O)CNc1cc(N2CC3(CCC3)C(F)(C(=O)O)C2)ncn1 (stereo not shown) [Z5722] | 404 |  | 0.18 |  | 36 |  | 0.59 |  |  | 464 µM and 460 µM |  | Y | 0.96 | 1-BDC (SARS-CoV-2 NSP3 Mac1 [2]; [19]): 0.18; PanDDA hit? (SARS-CoV-2 NSP3 Mac1 [2]; [20]): TRUE; Modeled? (SARS-CoV-2 NSP3 Mac1 [2]; [21]): TRUE
16 | C[C@@H]1CN(c2ncnc3[nH]c4ccccc4c23)C[C@@H](CO)O1 [Z6923] | 362 |  | 0.1 |  | 20 |  | 0.28 |  |  | 416 µM and ≤ 90 µM | 416 | Y | 0.46 | Modeled? (SARS-CoV-2 NSP3 Mac1 [2]; ligand modeled in structure, crystal soak, Compound_concentration 100 mM): TRUE
17 | O=c1[nH]nc(C2CCCN(c3ncnc4[nH]ccc34)C2)o1 (stereo not shown) [Z7655] | 243 |  | 0.09 |  | 18 |  | 0.22 |  |  | 279 µM | 279 | Y | 0.6 | 1-BDC (SARS-CoV-2 NSP3 Mac1 [2]; [14]): 0.09; PanDDA hit? (SARS-CoV-2 NSP3 Mac1 [2]; [15]): TRUE; Modeled? (SARS-CoV-2 NSP3 Mac1 [2]; [16]): TRUE
18 | OC[C@H]1CCCN(c2ncnc3[nH]c4cc(F)ccc4c23)C1 [Z7873] | 78.6 |  | 0.06 |  | 12 |  | 0.95 |  |  | ≤ 90 µM and 90 µM | 90.3 | Y | 1.5 | 1-BDC (SARS-CoV-2 NSP3 Mac1 [2]; [19]): 0.06; PanDDA hit? (SARS-CoV-2 NSP3 Mac1 [2]; [20]): TRUE; Modeled? (SARS-CoV-2 NSP3 Mac1 [2]; [21]): TRUE
19 | O=C(OCCN1CCOC1=O)c1ncnc2[nH]ccc12 [Z8207] | 52.3 |  | 0.38 |  | 76 | Y | 0.99 | 2.51 ˚C | 60.1 | 60 µM |  |  |  | 
20 | CNC(=O)Nc1ccc(C(=O)NC2c3ccccc3CC2C(=O)O)cc1 (stereo not shown) [Z8515] | 9 | 0.09 | 0.09 | TRUE | 18 |  | 0.98 |  |  | 7.9 µM | 10.3 | Y | 3.71 | Modeled? (SARS-CoV-2 NSP3 Mac1 [2]; [7]): TRUE
21 | O=C(Nc1ccc(C(=O)NC2c3cccc(O)c3CC2C(=O)O)c2scnc12)NC1CC1 (stereo not shown) [Z8539_0065] | 4.2 |  |  |  | 18 | Y |  |  | 4.8 | 3.3 µM |  |  |  | 1-BDC (SARS-CoV-2 NSP3 Mac1 [2]; [22]): 0.09; 1-BDC (PanDDA) (SARS-CoV-2 NSP3 Mac1 [2]; [5]): 0.09; PanDDA hit? (SARS-CoV-2 NSP3 Mac1 [2]; [23]): TRUE; Modeled? (SARS-CoV-2 NSP3 Mac1 [2]; ligand modeled in this dataset, crystal soak, Compound_concentration 100 mM): TRUE
22 | CNC(=O)Nc1ccc(C(=O)NC2c3cccc(O)c3CC2C(=O)O)cc1 (stereo not shown) [Z8539_0077] | 0.9 |  | 0.2 |  | 40 | Y |  |  | 1 |  |  |  |  | binding to Mac1 in the HTRF assay, result in words (SARS-CoV-2 NSP3 Mac1 [1]): did not substantially change binding affinity; 1-BDC (SARS-CoV-2 NSP3 Mac1 [2]; [22]): 0.25; PanDDA hit? (SARS-CoV-2 NSP3 Mac1 [2]; [23]): TRUE; Modeled? (SARS-CoV-2 NSP3 Mac1 [2]; [11]): TRUE
23 | O=C(O)CC1CN(c2ncnc3[nH]c4ccccc4c23)CCO1 (stereo not shown) [Z9596] | 32.3 |  |  |  |  | Y |  |  | 37.1 |  |  |  |  | 
